In article PMC8327344, “Regulation of a pentameric ligand-gated ion channel by a semiconserved cationic lipid-binding site” (The Journal of Biological Chemistry, 2021):

Tests used:
ELIC W206F = biological target: T1, ELIC W206F (Dickeya chrysanthemi, UniProt P0C7B7, INS163G/W205F); experiment: FlexStation membrane potential dye assay, GABA-elicited responses; assay type: cell-based, D. didantii; conditions: HEK293 cells, n = 4
T1 construct: expressed in transfected cells; host or cells: HEK293
Description: (§1) These methods were similar to those previously described ([55]). Briefly, ELIC cDNA was transfected into HEK293 cells, and these were then grown for 2 to 3 days in a 96-well plate. Then blue fluorescent membrane potential dye (Molecular Devices Ltd) diluted in Flex buffer (10 mM HEPES, 115 mM NaCl, 1 mM KCl, 1 mM CaCl2, 1 mM MgCl2, 10 mM glucose, pH 7.4) was added to each well. After incubation at 37 °C for 30 min, plates were placed in a FlexStation (Molecular Devices Ltd) and fluorescence measured every 2 s for 120 s. […] Concentration–response data were fitted to the four-parameter logistic equation, F = Fmin + (Fmax − Fmin)/(1 + 10^log(EC50-[A])∗^nH), where [A] is the concentration of agonist, nH is the Hill coefficient, and Fmax and Fmin are the maximal and minimal fluorescence levels for each dataset, using Prism software (GraphPad). WT and mutant responses were compared using an ANOVA test followed by Dunnett’s multiple comparison test.

ELIC W206A = biological target: T2, ELIC W206A (Dickeya chrysanthemi, UniProt P0C7B7, INS163G/W205A); experiment: as above; assay type: cell-based, D. didantii; conditions: HEK293 cells, up to 100 mM GABA
T2 construct: expressed in transfected cells; host or cells: HEK293
Description: as §1

wild-type (WT) ELIC = experiment: as above; assay type: cell-based, D. didantii; conditions: HEK293 cells transfected with WT ELIC
Description: as §1

ELIC W206Y = experiment: as above; assay type: cell-based, D. didantii; conditions: HEK293 cells
Description: as §1

[1] = tested on: α1β2 εF260E mutant GABAAR; experiment: Two electrode voltage clamp recordings from Xenopus oocytes; assay type: cell-based, human; conditions: ε F260E compared with WT
Description: Mutations were engineered with a QuikChange strategy and confirmed by sequencing. For functional expression of GABAAR containing an ε subunit, the mRNAs encoding for the human α1 (NP_000797.2), β2 (NP_068711.1) and ε subunits were mixed in a 1:1:0.1 ratio in nuclease-free distilled water at a concentration of 0.4 μg/μl (n.b. the definitive stoichiometry of the expressed receptors was not determined). […] Injection of 2 ng of mRNA per oocyte was done using the automated injection system Roboinject (Multi Channel Systems). Oocytes were incubated at 18 °C for 2 to 5 days prior to conducting the electrophysiological recordings using the two electrode automated voltage clamp system (HiClamp apparatus, Multi Channel Systems). […] Data acquired with the HiClamp were analyzed using the manufacturer’s software (Multi Channel Systems). Concentration–activation curves were fitted with the empirical Hill equation. Data are presented as the mean ± standard deviation (SD). Statistical comparison between WT and mutants was done with an unpaired, two-tailed t test with Welch’s correction for unequal sample size and variance.

[2] = tested on: ELIC with fluorinated Trp at W206; experiment: Two-electrode voltage clamp of oocytes, noncanonical fluorinated Trp (FW, F2W, F3W) at position 206; assay type: cell-based, D. didantii; conditions: F3W at position 206, compared with WT
Description: Site-directed mutagenesis was performed using the QuikChange strategy (Stratagene) using ELIC in pGEM-HE. Mutations were confirmed by sequencing. For noncanonical amino acid mutants, the site of interest was mutated to the TAG stop codon. Plasmids were linearized and receptor mRNA prepared by in vitro runoff transcription using the Ambion T7 mMessage mMachine kit. Noncanonical amino acids ligated to tRNA were prepared as previously described ([56]).
Stage V-VI oocytes of Xenopus laevis were harvested and injected with mRNAs as described previously. For experiments with WT channels and conventional mutants, each cell received a single injection of 10 to 25 ng of receptor mRNA approximately 24 h before recording. For nonsense suppression experiments, each cell was injected with 50 to 100 ng each of receptor mRNA and appropriate tRNA approximately 48 h before recording. Injection volumes for each injection session were 50 to 100 nl per cell.
Two-electrode voltage clamping of Xenopus oocytes was performed using an OpusXpress system (Axon Instruments, Inc). All experiments were performed at 22 to 25 °C. […] The holding potential was −60 mV unless otherwise specified. Concentration–response curves and parameters were obtained using Prism software (GraphPad, PRISM).

Question: Which EC50 (ELIC W206F) does the source give for `NCCCC(=O)O` [GABA] here?
Answer: 2000 µM

Question: And the pEC50 (ELIC W206F)?
Answer: 2.694 ± 0.08

Question: What about the GABA-elicited response (ELIC W206A) of the same molecule?
Answer: no response

Question: What about the Hill coefficient (wild-type (WT) ELIC) of the same molecule?
Answer: 2.2 ± 1.4

Question: And the maximal response (ELIC W206Y)?
Answer: ~60 % of WT

Question: What about the “decrease of apparent GABA affinity” value [1] of the same molecule?
Answer: threefold

Question: And the “change of EC50-values” [2]?
Answer: increased EC50-values
